Drawing on BindingDB's records for doi:10.1016/j.bioorg.2015.06.004 (University of Karachi, 2015), this text covers IC50 for 19 molecules.

Molecules are shown by their SMILES.

For the assay, the target named is Urease [D459Y,K653P] (Canavalia ensiformis, UniProt P07374, D459Y/K653P). The assay is described as follows: Urease Inhibition Assay. Conditions: pH 8.2. Here is the method: The mixture of this enzyme inhibition assay was composed of 10 µL of enzyme (5 U/mL) and 10 µL of each test compound in the series (3a-3s) in 40 µL buffer (100 mM urea, 0.01 M K2HPO4, 1 mM EDTA and 0.01 M […], pH 8.2). The resulting mixture in for each test compound was incubated for 30 min at 37 °C in 96-well plates. Subsequently, the phenol reagents (40 µL) (1%, w/v phenol and 0.005%, w/v sodium nitroprusside) and alkali reagent (40 µL) (0.5%, w/v NaOH and 0.1% active chloride NaOCl) were dropped down into each well. The absorbance of the colored resultant mixtures was measured after 30 min at 625 nm.
Sequence of Urease [D459Y,K653P] (P07374 whole entry D459Y/K653P): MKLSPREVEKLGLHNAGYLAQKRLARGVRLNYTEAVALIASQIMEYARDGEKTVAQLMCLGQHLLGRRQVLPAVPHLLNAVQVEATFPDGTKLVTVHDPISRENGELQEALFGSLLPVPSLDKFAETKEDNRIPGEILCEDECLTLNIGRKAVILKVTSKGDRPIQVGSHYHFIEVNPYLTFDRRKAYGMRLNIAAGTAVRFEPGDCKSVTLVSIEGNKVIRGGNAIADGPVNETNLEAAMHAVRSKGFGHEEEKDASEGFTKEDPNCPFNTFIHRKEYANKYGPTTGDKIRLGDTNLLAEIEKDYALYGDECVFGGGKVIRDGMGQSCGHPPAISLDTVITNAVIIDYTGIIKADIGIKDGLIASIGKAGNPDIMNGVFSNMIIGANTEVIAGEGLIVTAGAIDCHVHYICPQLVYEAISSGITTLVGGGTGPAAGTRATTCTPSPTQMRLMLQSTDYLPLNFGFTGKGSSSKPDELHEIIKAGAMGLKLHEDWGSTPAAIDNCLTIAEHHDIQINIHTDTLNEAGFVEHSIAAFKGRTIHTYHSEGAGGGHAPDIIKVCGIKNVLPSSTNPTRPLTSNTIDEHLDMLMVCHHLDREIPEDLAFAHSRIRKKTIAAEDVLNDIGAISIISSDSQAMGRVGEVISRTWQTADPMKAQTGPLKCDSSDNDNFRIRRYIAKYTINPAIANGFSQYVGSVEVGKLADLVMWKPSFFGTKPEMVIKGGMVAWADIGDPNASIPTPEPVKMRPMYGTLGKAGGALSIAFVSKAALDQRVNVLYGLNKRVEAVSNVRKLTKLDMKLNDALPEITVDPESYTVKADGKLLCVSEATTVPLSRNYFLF
As usually defined, the IC50 is the point on the concentration scale where inhibition reaches its midpoint. Higher therefore signals a need for much substance. `CC(=NNC(=S)Nc1cccc(C)c1)c1cc2ccccc2o1` [1-[1-(2-benzofuranyl)ethylideneamino]-3-(3-methylphenyl)thiourea] displayed an IC50 of 0.283 µM.
For `CC(=NNC(=S)Nc1ccc(Cl)cc1Cl)c1cc2ccccc2o1` [2-(1-(Benzofuran-2-yl)ethylidene)-N-(2,4-dichlorophenyl)-hydrazinecarbothioamide (3c)] the value was 0.592 µM; for `CC(=NNC(=S)Nc1ccc(F)cc1F)c1cc2ccccc2o1` [2-(1-(Benzofuran-2-yl)ethylidene)-N-(2,4-difluorophenyl)hydrazinecarbothioamide (3h)], 0.387 µM; for `CC(=NNC(=S)Nc1cc(Cl)ccc1Cl)c1cc2ccccc2o1` [2-(1-(Benzofuran-2-yl)ethylidene)-N-(2,5-dichlorophenyl)-hydrazinecarbothioamide (3d)], 2.01 µM.
For `CC(=NNC(=S)Nc1ccccc1Br)c1cc2ccccc2o1` [2-(1-(Benzofuran-2-yl)ethylidene)-N-(2-bromophenyl)hydrazinecarbothioamide (3j)] the value was 0.564 µM; for `CC(=NNC(=S)Nc1ccccc1F)c1cc2ccccc2o1` [2-(1-(Benzofuran-2-yl)ethylidene)-N-(2-fluorophenyl)hydrazinecarbothioamide (3g)], 0.321 µM.
For `COc1ccccc1NC(=S)NN=C(C)c1cc2ccccc2o1` [2-(1-(Benzofuran-2-yl)ethylidene)-N-(2-methoxyphenyl)hydrazinecarbothioamide (3o)] the value was 24 µM.
`CC(=NNC(=S)Nc1ccccc1C)c1cc2ccccc2o1` [2-(1-(Benzofuran-2-yl)ethylidene)-N-(2-methylphenyl)hydrazinecarbothioamide (3p)]: the IC50 was found to be 0.314 µM.
The molecule `CC(=NNC(=S)Nc1cccc(Br)c1)c1cc2ccccc2o1` [2-(1-(Benzofuran-2-yl)ethylidene)-N-(3-bromophenyl)hydrazinecarbothioamide (3i)] gave an IC50 of 10.9 µM.
For `CC(=NNC(=S)Nc1cccc(Cl)c1)c1cc2ccccc2o1` [2-(1-(Benzofuran-2-yl)ethylidene)-N-(3-chlorophenyl)hydrazinecarbothioamide (3b)] the value was 1.13 µM; for `CC(=NNC(=S)Nc1cccc(F)c1)c1cc2ccccc2o1` [2-(1-(Benzofuran-2-yl)ethylidene)-N-(3-fluorophenyl)hydrazinecarbothioamide (3f)], 1.15 µM.
For `COc1cccc(NC(=S)NN=C(C)c2cc3ccccc3o2)c1` [2-(1-(Benzofuran-2-yl)ethylidene)-N-(3-methoxyphenyl)hydrazinecarbothioamide (3n)] the value was 0.102 µM; for `CC(=NNC(=S)Nc1cccc([N+](=O)[O-])c1)c1cc2ccccc2o1` [2-(1-(Benzofuran-2-yl)ethylidene)-N-(3-nitrophenyl)hydrazinecarbothioamide (3k)], 0.077 µM.
In turn, `CC(=NNC(=S)Nc1ccc(F)cc1)c1cc2ccccc2o1` [2-(1-(Benzofuran-2-yl)ethylidene)-N-(4-fluorophenyl)hydrazinecarbothioamide (3e)] yielded an IC50 of 0.177 µM.
For `COc1ccc(NC(=S)NN=C(C)c2cc3ccccc3o2)cc1` [2-(1-(Benzofuran-2-yl)ethylidene)-N-(4-methoxyphenyl)hydrazinecarbothioamide (3m)] the value was 2.61 µM; for `CC(=NNC(=S)Nc1ccc([N+](=O)[O-])cc1)c1cc2ccccc2o1` [2-(1-(Benzofuran-2-yl)ethylidene)-N-(4-nitrophenyl)hydrazinecarbothioamide (3l)], 0.181 µM.
For `CC(=NNC(=S)Nc1ccccc1)c1cc2ccccc2o1` [2-(1-(Benzofuran-2-yl)ethylidene)-N-phenylhydrazinecarbothioamide (3a)] the value was 0.089 µM; for `C=CCNC(=S)NN=C(C)c1cc2ccccc2o1` [N-Allyl-2-(1-(benzofuran-2-yl)ethylidene)hydrazinecarbothioamide (3s)], 0.694 µM; for `CC(=NNC(=S)Nc1ccc(C)cc1)c1cc2ccccc2o1` [SMR000377934], 3.47 µM.
